US20250213563A1, “SUBSTITUTED PYRIMIDIN-4(3H)-ONES FOR USE IN TREATING CANCER” (NAVIRE PHARMA, INC., priority 2021, published 2025)

What was measured:
[1] = system: MIA PaCa-2 CDX model; test: Monotherapy anti-tumor activity, CDX model; assay type: in vivo, immunocompromised mice; conditions: 100 mg/kg daily orally, 21 to 33 days; KRAS^G12C
Protocol: (§1) In vivo efficacy studies were conducted to evaluate the monotherapy anti-tumor activity of Compound (10b) across a panel of cell line-derived xenograft (CDX) models. […] Significant anti-tumor efficacy was also observed in two CDX models with acquired resistance to EGFR inhibitors.

[2] = system: HCC827-ER CDX model; test: Monotherapy anti-tumor activity, CDX model; assay type: in vivo, immunocompromised mice; conditions: 100 mg/kg daily orally, 21 to 33 days; MET^amp, resistant to EGFR inhibitor
Protocol: as §1

[3] = system: NCI-H1975-OR CDX model; test: Monotherapy anti-tumor activity, CDX model; assay type: in vivo, immunocompromised mice; conditions: 100 mg/kg daily orally, 21 to 33 days; EGFR^L858R, EGFR^T790M, EGFR^C797S
Protocol: as §1

[4] = system: KYSE-520 model; test: Monotherapy anti-tumor activity, CDX model; assay type: in vivo, immunocompromised mice; conditions: 100 mg/kg daily orally, 21 to 33 days; EGFR^amp
Protocol: as §1

[5] = system: NCI-H358 CDX model; test: Monotherapy anti-tumor activity, CDX model; assay type: in vivo, immunocompromised mice; conditions: 100 mg/kg daily orally, 21 to 33 days; KRAS^G12C
Protocol: as §1

[6] = molecular target: T1, full-length human SHP2 wild-type enzyme (Homo sapiens, UniProt Q06124); test: SHP2 enzymatic assay (DiFMUP), full-length enzyme; assay type: biochemical; conditions: in presence of 1 μM bistyrosylphorphorylated peptide; mean±SD, 34 independent test occasions
T1 construct: full-length human SHP2 (amino acid 1-597); 6xHis (TEV site) (N, cleaved yes); made in house; host or cells: E. coli BL21 (DE3)
T1 sequence (Q06124 1-597 isoform Q06124-1): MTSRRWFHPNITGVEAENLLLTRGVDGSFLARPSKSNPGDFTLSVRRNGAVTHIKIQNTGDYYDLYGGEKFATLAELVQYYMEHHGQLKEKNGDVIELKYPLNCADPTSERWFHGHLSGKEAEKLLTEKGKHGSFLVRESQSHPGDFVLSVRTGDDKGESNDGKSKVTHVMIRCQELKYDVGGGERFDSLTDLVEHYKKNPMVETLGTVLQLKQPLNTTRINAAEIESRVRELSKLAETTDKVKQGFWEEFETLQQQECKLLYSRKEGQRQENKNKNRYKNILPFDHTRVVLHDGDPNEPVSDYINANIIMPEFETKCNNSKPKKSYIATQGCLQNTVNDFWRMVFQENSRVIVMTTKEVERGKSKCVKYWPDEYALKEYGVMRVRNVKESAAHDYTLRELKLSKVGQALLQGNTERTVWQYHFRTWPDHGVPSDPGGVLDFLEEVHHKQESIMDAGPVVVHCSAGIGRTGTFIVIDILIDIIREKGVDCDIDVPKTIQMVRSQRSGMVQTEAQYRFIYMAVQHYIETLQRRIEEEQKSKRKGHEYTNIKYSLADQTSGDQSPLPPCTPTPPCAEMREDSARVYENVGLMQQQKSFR
Protocol: Protein purification: The recombinant DNA for full-length human SHP2 (amino acid 1-597) or the phosphatase domain of human SHP2 (amino acid Ala237-Ile529) was cloned into a pET30 vector (Sigma #69909-3), which was modified to contain a TEV protease site after the N-terminal 6×His tag. The expression vector was transformed into E. coli BL21 (DE3) (NEB #C2527H). The protein was expressed and purified by the following procedure. Bacterial cells from a 50 mL overnight culture were inoculated in 6 L of terrific broth media. Once the E. coli culture reached an OD600 of 0.7, the temperature was lowered to 18° C. and recombinant protein expression was induced by the addition of 0.5 mM IPTG. After overnight incubation, the cells were harvested by centrifugation at […] for 45 min in a Sorvall Lynx 6000 (Thermo Fisher) centrifuge with F9-6×1000 LEX rotor. The cell pellets were stored at −80° C. until purification. […] The final product was 98% pure as determined by SDS-PAGE. The concentration of SHP2 protein was determined from the absorbance at 280 nm wavelength, using the calculated molar extinction coefficient for SHP2 protein of 72770 M^−1 cm^−1.
SHP2 enzymatic assay: Phosphatase activity of full-length human SHP2 wild-type enzyme or SHP2 phosphatase domain was measured using fluorogenic 6,8-difluoro-4-methylumbelliferyl phosphate (DiFMUP; Molecular Probes #D6567) as the substrate. […]

Cc1c(N2CCC3(CC2)CO[C@@H](C)[C@H]3N)nc(C)n(-c2cccc(Cl)c2Cl)c1=O (atropisomer, axis not shown; (Ra)) [Compound (10b), 6-((3S,4S)-4-amino-3-methyl-2-oxa-8-azaspiro[4.5]decan-8-yl)-3-(Ra)-(2,3-dichlorophenyl)-2,5-dimethylpyrimidin-4(3H)-one]
tumor growth inhibition (TGI) [1]: 74% | TGI [2]: 84% | mean tumor regression [3]: 87% | TGI [4]: 77% | mean tumor regression [5]: 50% | IC50 [6]: 0.0132 ± 0.0106 µM
